Experimental data: ChEMBL document CHEMBL5724914, “Linking interpersonal differences in gut microbiota composition and drug biotransformation activity” (2024)

Assay: (§1) The drug is tested on Z-013 corresponding to rabbit gut metagenome with ENA study accession number: PRJEB37062 and ENA sample accession number: ERS12561813 for biotransformation under anaerobic condition. The drug concentrations were measured over 9 timepoints collected between 0 and 24 hours of incubation by liquid-chromatography-coupled mass spectrometry (LC–MS)
Conditions: 2 µM
Note: call rule not given here.

| SMILES | Bacterial Biotransformation |
| --- | --- |
| CC(C)c1c(CN(C)C(C)Cc2ccccc2)n(C)n(-c2ccccc2)c1=O (stereo not given) [FAMPROFAZONE] | Compound metabolized |
| N=C(N)NC(=O)Cc1c(Cl)cccc1Cl [GUANFACINE] | Compound NOT metabolized |

Assay: as §1, with “Z-009” for “Z-013”, “pig” for “rabbit”, “ERS12561809” for “ERS12561813”
Conditions: 2 µM

| SMILES | Bacterial Biotransformation |
| --- | --- |
| CC(C)c1c(CN(C)C(C)Cc2ccccc2)n(C)n(-c2ccccc2)c1=O (stereo not given) [FAMPROFAZONE] | Compound metabolized |
| N=C(N)NC(=O)Cc1c(Cl)cccc1Cl [GUANFACINE] | Compound NOT metabolized |

Assay: as §1, with “Z-008” for “Z-013”, “to” for “to rabbit gut”, “ERS12561808” for “ERS12561813”
Conditions: 2 µM

| SMILES | Bacterial Biotransformation |
| --- | --- |
| CC(C)c1c(CN(C)C(C)Cc2ccccc2)n(C)n(-c2ccccc2)c1=O (stereo not given) [FAMPROFAZONE] | Compound metabolized |
| N=C(N)NC(=O)Cc1c(Cl)cccc1Cl [GUANFACINE] | Compound NOT metabolized |

Conditions: human gut metagenome, 24 h, 2 µM

| SMILES | Bacterial Biotransformation |
| --- | --- |
| CC(C)c1c(CN(C)C(C)Cc2ccccc2)n(C)n(-c2ccccc2)c1=O (stereo not given) [FAMPROFAZONE] | Compound metabolized |
| N=C(N)NC(=O)Cc1c(Cl)cccc1Cl [GUANFACINE] | Compound NOT metabolized |

Conditions: human gut metagenome, 24 h, 2 µM
Remark: another data set of the same source

| SMILES | Bacterial Biotransformation |
| --- | --- |
| CC(C)c1c(CN(C)C(C)Cc2ccccc2)n(C)n(-c2ccccc2)c1=O (stereo not given) [FAMPROFAZONE] | Compound metabolized |
| N=C(N)NC(=O)Cc1c(Cl)cccc1Cl [GUANFACINE] | Compound NOT metabolized |

Conditions: human gut metagenome, 24 h, 2 µM
Remark: another data set of the same source

| SMILES | Bacterial Biotransformation |
| --- | --- |
| CC(C)c1c(CN(C)C(C)Cc2ccccc2)n(C)n(-c2ccccc2)c1=O (stereo not given) [FAMPROFAZONE] | Compound metabolized |
| N=C(N)NC(=O)Cc1c(Cl)cccc1Cl [GUANFACINE] | Compound NOT metabolized |

Assay: as §1, with “WLS-073” for “Z-013”, “human” for “rabbit”, “ERS12561749” for “ERS12561813”
Conditions: 2 µM

| SMILES | Bacterial Biotransformation |
| --- | --- |
| CC(C)c1c(CN(C)C(C)Cc2ccccc2)n(C)n(-c2ccccc2)c1=O (stereo not given) [FAMPROFAZONE] | Compound metabolized |
| N=C(N)NC(=O)Cc1c(Cl)cccc1Cl [GUANFACINE] | Compound NOT metabolized |

Assay: as §1, with “Z-026” for “Z-013”, “to” for “to rabbit gut”, “ERS12561825” for “ERS12561813”
Conditions: 2 µM

| SMILES | Bacterial Biotransformation |
| --- | --- |
| CC(C)c1c(CN(C)C(C)Cc2ccccc2)n(C)n(-c2ccccc2)c1=O (stereo not given) [FAMPROFAZONE] | Compound NOT metabolized |
| N=C(N)NC(=O)Cc1c(Cl)cccc1Cl [GUANFACINE] | Compound NOT metabolized |

Conditions: human gut metagenome, 24 h, 2 µM
Remark: another data set of the same source

| SMILES | Bacterial Biotransformation |
| --- | --- |
| CC(C)c1c(CN(C)C(C)Cc2ccccc2)n(C)n(-c2ccccc2)c1=O (stereo not given) [FAMPROFAZONE] | Compound NOT metabolized |
| N=C(N)NC(=O)Cc1c(Cl)cccc1Cl [GUANFACINE] | Compound NOT metabolized |

Assay: as §1, with “WLS-090” for “Z-013”, “human” for “rabbit”, “ERS12561753” for “ERS12561813”
Conditions: 2 µM

| SMILES | Bacterial Biotransformation |
| --- | --- |
| CC(C)c1c(CN(C)C(C)Cc2ccccc2)n(C)n(-c2ccccc2)c1=O (stereo not given) [FAMPROFAZONE] | Compound metabolized |
| N=C(N)NC(=O)Cc1c(Cl)cccc1Cl [GUANFACINE] | Compound NOT metabolized |

Conditions: human gut metagenome, 24 h, 2 µM
Remark: another data set of the same source

| SMILES | Bacterial Biotransformation |
| --- | --- |
| CC(C)c1c(CN(C)C(C)Cc2ccccc2)n(C)n(-c2ccccc2)c1=O (stereo not given) [FAMPROFAZONE] | Compound metabolized |
| N=C(N)NC(=O)Cc1c(Cl)cccc1Cl [GUANFACINE] | Compound NOT metabolized |

Conditions: human gut metagenome, 24 h, 2 µM
Remark: another data set of the same source

| SMILES | Bacterial Biotransformation |
| --- | --- |
| CC(C)c1c(CN(C)C(C)Cc2ccccc2)n(C)n(-c2ccccc2)c1=O (stereo not given) [FAMPROFAZONE] | Compound metabolized |
| N=C(N)NC(=O)Cc1c(Cl)cccc1Cl [GUANFACINE] | Compound NOT metabolized |

Assay: as §1, with “Z-023” for “Z-013”, “to” for “to rabbit gut”, “ERS12561822” for “ERS12561813”
Conditions: 2 µM

| SMILES | Bacterial Biotransformation |
| --- | --- |
| CC(C)c1c(CN(C)C(C)Cc2ccccc2)n(C)n(-c2ccccc2)c1=O (stereo not given) [FAMPROFAZONE] | Compound metabolized |
| N=C(N)NC(=O)Cc1c(Cl)cccc1Cl [GUANFACINE] | Compound NOT metabolized |

Assay: as §1, with “Z-021” for “Z-013”, “to” for “to rabbit gut”, “ERS12561820” for “ERS12561813”
Conditions: 2 µM

| SMILES | Bacterial Biotransformation |
| --- | --- |
| CC(C)c1c(CN(C)C(C)Cc2ccccc2)n(C)n(-c2ccccc2)c1=O (stereo not given) [FAMPROFAZONE] | Compound metabolized |
| N=C(N)NC(=O)Cc1c(Cl)cccc1Cl [GUANFACINE] | Compound NOT metabolized |

Assay: as §1, with “Z-016” for “Z-013”, “mouse” for “rabbit”, “ERS12561815” for “ERS12561813”
Conditions: 2 µM

| SMILES | Bacterial Biotransformation |
| --- | --- |
| CC(C)c1c(CN(C)C(C)Cc2ccccc2)n(C)n(-c2ccccc2)c1=O (stereo not given) [FAMPROFAZONE] | Compound metabolized |
| N=C(N)NC(=O)Cc1c(Cl)cccc1Cl [GUANFACINE] | Compound NOT metabolized |

Conditions: human gut metagenome, 24 h, 2 µM
Remark: another data set of the same source

| SMILES | Bacterial Biotransformation |
| --- | --- |
| CC(C)c1c(CN(C)C(C)Cc2ccccc2)n(C)n(-c2ccccc2)c1=O (stereo not given) [FAMPROFAZONE] | Compound metabolized |
| N=C(N)NC(=O)Cc1c(Cl)cccc1Cl [GUANFACINE] | Compound NOT metabolized |

Assay: as §1, with “Z-024” for “Z-013”, “pig” for “rabbit”, “ERS12561823” for “ERS12561813”
Conditions: 2 µM

| SMILES | Bacterial Biotransformation |
| --- | --- |
| CC(C)c1c(CN(C)C(C)Cc2ccccc2)n(C)n(-c2ccccc2)c1=O (stereo not given) [FAMPROFAZONE] | Compound metabolized |
| N=C(N)NC(=O)Cc1c(Cl)cccc1Cl [GUANFACINE] | Compound NOT metabolized |

Conditions: human gut metagenome, 24 h, 2 µM
Remark: another data set of the same source

| SMILES | Bacterial Biotransformation |
| --- | --- |
| CC(C)c1c(CN(C)C(C)Cc2ccccc2)n(C)n(-c2ccccc2)c1=O (stereo not given) [FAMPROFAZONE] | Compound metabolized |
| N=C(N)NC(=O)Cc1c(Cl)cccc1Cl [GUANFACINE] | Compound NOT metabolized |

Conditions: human gut metagenome, 24 h, 2 µM
Remark: another data set of the same source

| SMILES | Bacterial Biotransformation |
| --- | --- |
| CC(C)c1c(CN(C)C(C)Cc2ccccc2)n(C)n(-c2ccccc2)c1=O (stereo not given) [FAMPROFAZONE] | Compound metabolized |
| N=C(N)NC(=O)Cc1c(Cl)cccc1Cl [GUANFACINE] | Compound NOT metabolized |

Assay: as §1, with “Z-003” for “Z-013”, “pig” for “rabbit”, “ERS12561803” for “ERS12561813”
Conditions: 2 µM

| SMILES | Bacterial Biotransformation |
| --- | --- |
| CC(C)c1c(CN(C)C(C)Cc2ccccc2)n(C)n(-c2ccccc2)c1=O (stereo not given) [FAMPROFAZONE] | Compound metabolized |
| N=C(N)NC(=O)Cc1c(Cl)cccc1Cl [GUANFACINE] | Compound NOT metabolized |
